Molecular target: T1, Periconia sp. BGLI (recombinant β-glucosidase, bgl1) (Periconia sp. BCC 2871, UniProt A9UIG0, T284I/N305T)
T1 construct: full-length bgl1 (2601 bp cDNA, own signal peptide) expressed in T. reesei QM9414 under tef1 promoter, secreted, culture supernatant; predicted about 95 kDa, glycosylated
Experiment: MUG zymogram after native PAGE of culture supernatant
Format: biochemical
Settings: 5 mM MUG, 50 mM sodium citrate, pH 5.0, 70 °C, 10 min
Source text: MUG zymogram after native PAGE of culture supernatant on Periconia sp.

T1 sequence (A9UIG0 entry or part of it T284I/N305T): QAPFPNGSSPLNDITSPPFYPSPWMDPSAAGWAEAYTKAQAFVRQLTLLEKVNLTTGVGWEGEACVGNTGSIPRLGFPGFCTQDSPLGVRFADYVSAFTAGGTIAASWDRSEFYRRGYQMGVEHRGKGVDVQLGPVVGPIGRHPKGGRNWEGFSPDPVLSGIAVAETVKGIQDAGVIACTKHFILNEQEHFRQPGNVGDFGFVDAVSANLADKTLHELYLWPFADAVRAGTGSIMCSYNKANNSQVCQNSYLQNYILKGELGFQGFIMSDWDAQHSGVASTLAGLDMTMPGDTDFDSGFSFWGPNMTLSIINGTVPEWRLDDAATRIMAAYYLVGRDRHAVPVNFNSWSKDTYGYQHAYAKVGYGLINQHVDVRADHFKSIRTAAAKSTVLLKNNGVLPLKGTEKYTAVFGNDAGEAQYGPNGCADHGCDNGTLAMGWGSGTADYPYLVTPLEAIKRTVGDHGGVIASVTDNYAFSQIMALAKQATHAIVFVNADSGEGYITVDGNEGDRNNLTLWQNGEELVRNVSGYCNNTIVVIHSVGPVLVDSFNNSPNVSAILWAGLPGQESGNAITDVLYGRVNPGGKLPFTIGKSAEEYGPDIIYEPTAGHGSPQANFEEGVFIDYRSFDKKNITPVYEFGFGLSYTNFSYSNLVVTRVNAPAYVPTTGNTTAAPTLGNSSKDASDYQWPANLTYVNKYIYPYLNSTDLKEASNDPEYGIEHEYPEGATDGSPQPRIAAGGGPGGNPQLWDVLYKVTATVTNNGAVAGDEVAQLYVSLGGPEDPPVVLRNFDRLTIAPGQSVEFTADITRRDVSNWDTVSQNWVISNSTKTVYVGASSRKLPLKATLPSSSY

Cc1cc(=O)oc2cc(O[C@@H]3O[C@H](CO)[C@@H](O)[C@H](O)[C@H]3O)ccc12 [4-methylumbelliferyl β-D-glucopyranoside]
MUG zymogram after native PAGE of culture supernatant: second active β- glucosidase with higher molecular weight was only obtained from the transformants

Source: article PMC3434039, “Overexpression of an exotic thermotolerant β-glucosidase in trichoderma reesei and its significant increase in cellulolytic activity and saccharification of barley straw” (Microbial Cell Factories, 2012)
